Values after ≈ are worked out from the molar mass of the structure shown. Values joined by “and” are separate entries in the source; they are usually repeats but may differ in a detail not shown here. Identical values can stand only once. Like-named read-outs stand apart in the source and are kept apart here.
Assays:
[1] = Determination of Vx-770 solubility profile (incremental solvent addition; saturated saline, 1-octanol extraction, spectrophotometry at 311 nm); type: physicochemical; settings: for solubility at 24 h: aqueous saline (standard bath solution)
Excerpt: We reasoned that some of the reported controversies on Vx-770 effects might be explained by the use of highly supersaturated concentrations of the drug in all published studies, and set out to determine its true solubility profile. Starting from crystalline Vx-770 (Selleck Chemicals), solubilities (S) of the drug in various organic solvents could be readily determined by adding incremental small volumes of solvent until all crystals had been dissolved (Table 1). We found Vx-770 extremely soluble in anhydrous dimethyl sulfoxide (DMSO) (S ~ 0.77 M), and reasonably soluble in 1-octanol (S ~ 3.9 mM) and ethanol (S ~ 3.1 mM). […] To generate an aqueous solution exactly saturated with Vx-770, a small aliquot of crystals was added to an aqueous saline (pH = 7.1) and, after vigorous shaking for 24 hr, visible crystals were removed by repeated filtering and microcrystals sedimented by centrifugation (Materials and methods). The resulting supernatant (our ‘1x saturated’ stock solution) was then used both for determination of Vx-770 solubility (Figure 1b–c), and for functional experiments (Figures 2–5). […] Repeated extraction of the aqueous stock with 1-octanol yielded a flat spectrum ([…], green spectrum, ‘2nd extract’), confirming that all Vx-770 had been efficiently extracted in the first round.
Crystalline Vx-770 (purity 99.58% by HPLC) was purchased from Selleck Chemicals (Houston, TX, USA). Solubilities (S) at 25°C in anhydrous dimethyl sulfoxide (DMSO) (S ~ 0.77 M), 1-octanol (S ~ 3.9 mM), ethanol (S ~ 3.1 mM), octane (S ~ 2.6 mM), and pentane (S ~ 18 μM) were determined by weighing out a small amount (1–2 mg) of crystals on an analytical balance (Kern ABJ), and adding incremental small volumes of solvent, followed by mixing, until all crystals had been dissolved.
To obtain an aqueous solution (pH = 7.1) exactly saturated with Vx-770 (our ‘1x saturated’ stock), a small aliquot of Vx-770 crystals (~0.1 mg) was added to 250 ml of our standard bath solution (in mM: 134 NMDG-Cl, 2 MgCl2, 5 HEPES, 0.5 EGTA, pH = 7.1 with NMDG), and the solution was shaken for 24 hr at 25°C at 200 RPM (New Brunswick Excella E24). Remaining, clearly visible, macrocrystals were removed by filtering the solution twice through an 0.22 μm pore size filter (Millipore Durapore Steritop + Stericup, Merck KGaA, Darmstadt, Germany). To sediment invisible microcrystals, the filtrate was centrifuged at 7200 RCF for 1 hr in 50 ml conical tubes, and the supernatant carefully removed, leaving the last ~1 ml behind. The resulting cleared filtrate was stored and used as a stock solution for all subsequent studies.
The concentration of Vx-770 in the 1x saturated stock was determined by spectrophotometry (NanoPhotometer P300, Implen GmbH). […] To obtain a calibration curve, Vx-770 (from a commercial 10 mM stock dissolved in DMSO, purchased from Selleck Chemicals) was diluted into 1-octanol (saturated with water) to final concentrations of 1, 2, 4, 8, and 16 μM. Absorption spectra were measured in a 1 ml quartz cuvette against 1-octanol (saturated with water) as a blank (Figure 1b, blue spectra). To extract Vx-770 from the 1x saturated aqueous stock, two 15 ml conical tubes, each containing 14 ml of the 1x aqueous stock plus 0.7 ml 1-octanol, were vortexed for 1 min, and then centrifuged at 7200 RCF for 30 min. Approximately 2 × 0.6 ml of the 1-octanol phase was recovered, pooled, and its absorption spectrum measured in a 1 ml quartz cuvette against 1-octanol (saturated with water) as a blank (Figure 1b, red spectrum). To extract the remaining aqueous phase for a second time, the remnants of the 1-octanol phase were carefully discarded from both conical tubes, and 12.5 ml of the remaining aqueous phase (removed by inserting the pipette tip well below the surface) was transferred into two clean conical tubes. The extraction was then repeated using 2 × 0.625 ml 1-octanol, from which 2x ~ 0.5 ml was recovered, pooled, and assayed for optical density (Figure 1b, green spectrum). […]

[2] = parameters: method as in FDA report by Vertex Pharmaceuticals Incorporated; settings: patients, oral, ref FDA report by Vertex Pharmaceuticals Incorporated, cited from earlier work

CC(C)(C)c1cc(C(C)(C)C)c(NC(=O)c2c[nH]c3ccccc3c2=O)cc1O [Vx-770, ivacaftor]
solubility ([1]; 1-octanol, 25 °C, organic solvent or mixture, thermodynamic from solid, 1-octanol, 25°C, read-out: S (solubility)): 3900 µM (≈ 1530 µg/mL) | aqueous solubility lower than reported / generally believed ([1]; 25°C): ~ 200 fold | aqueous solubility Saq ([1]; 25°C, pH = 7.1, aqueous saline): ~ 62 nM and ~ 60 nM | solubility ([1]; anhydrous DMSO, 25 °C, organic solvent or mixture, thermodynamic from solid, DMSO, 25°C, read-out: S (solubility)): 770000 µM (≈ 302000 µg/mL) | solubility at 24 h ([1]; 25 °C, pH 7.1, thermodynamic from solid, water (pH=7.1), aqueous saline, 25°C, read-out: S (solubility)): 0.062 µM (≈ 0.0243 µg/mL) | solubility at 24 h ([1]; pH 7.1, 25°C, over pH 7.1 and 7.4, read-out: aqueous solubility estimate): 0.05 to 0.062 µM (≈ 0.0196 to 0.0243 µg/mL) | solubility at 24 h ([1]; pH 7.1, 25°C, pH = 7.1, aqueous saline, read-out: aqueous solubility Saq): 0.06 µM (≈ 0.0235 µg/mL) | solubility ([1]; ethanol, 25 °C, organic solvent or mixture, thermodynamic from solid, ethanol, 25°C, read-out: S (solubility)): 3100 µM (≈ 1220 µg/mL) | pKa ([1]; inferred from solubility at pH 7.4 vs 7.1, read-out: strongest acidic pKa): > 7.4 | solubility ([1]; octane, 25 °C, organic solvent or mixture, thermodynamic from solid, octane, 25°C, read-out: S (solubility)): 2600 µM (≈ 1020 µg/mL) | solubility ([1]; octane, 25°C, read-out: S (solubility)): ~2600 µM (≈ 1020 µg/mL) | aqueous solubility at 37°C compared to that at 25°C ([1]; pH = 7.1, higher at 37°C): ~ 2 fold | solubility ([1]; pentane, 25 °C, organic solvent or mixture, thermodynamic from solid, pentane, 25°C, read-out: S (solubility)): 18 µM (≈ 7.06 µg/mL) | solubility ([1]; pentane, 25°C, read-out: S (solubility)): ~18 µM (≈ 7.06 µg/mL) | peak plasma concentration ([2]; twice daily 150 mg (therapeutic)): ~ 4 μM | peak plasma concentration ([2]; twice daily 450 mg (supratherapeutic)): > 10 µM

Source: PMC6594753, “Cystic fibrosis drug ivacaftor stimulates CFTR channels at picomolar concentrations” (eLife, 2019)
